Source: PubChem BioAssay (NCI)
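Test compounds were applied to cells in 96-well plates for 48 hours at 5 doses. Definition used: TGI = concentration required for complete inhibition of growth.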

Columns and labels:
Test in all cases: NCI tumour cell line growth inhibition, 48 h
HT29 colon = test system: HT29 colon
HS 578T breast = test system: HS 578T breast
DU-145 prostate = test system: DU-145 prostate
NCI-H23 lung = test system: NCI-H23 lung
RXF 393 renal = test system: RXF 393 renal
NCI-H460 lung = test system: NCI-H460 lung
OVCAR-4 ovarian = test system: OVCAR-4 ovarian
K-562 leukemia = test system: K-562 leukemia
ACHN renal = test system: ACHN renal
OVCAR-8 ovarian = test system: OVCAR-8 ovarian
CAKI-1 renal = test system: CAKI-1 renal
NCI/ADR-RES ovarian = test system: NCI/ADR-RES ovarian
UACC-62 melanoma = test system: UACC-62 melanoma
HCT-15 colon = test system: HCT-15 colon
A498 renal = test system: A498 renal
IGROV1 ovarian = test system: IGROV1 ovarian
RPMI-8226 leukemia = test system: RPMI-8226 leukemia
U251 CNS = test system: U251 CNS
HCC-2998 colon = test system: HCC-2998 colon
NCI-H522 lung = test system: NCI-H522 lung
SF-539 CNS = test system: SF-539 CNS
PC-3 prostate = test system: PC-3 prostate
NCI-H226 lung = test system: NCI-H226 lung
MOLT-4 leukemia = test system: MOLT-4 leukemia
SK-MEL-28 melanoma = test system: SK-MEL-28 melanoma
MDA-N = test system: MDA-N
UO-31 renal = test system: UO-31 renal
LOX IMVI melanoma = test system: LOX IMVI melanoma
HCT-116 colon = test system: HCT-116 colon
SN12C renal = test system: SN12C renal
M14 melanoma = test system: M14 melanoma
786-0 renal = test system: 786-0 renal
SF-295 CNS = test system: SF-295 CNS
SNB-19 CNS = test system: SNB-19 CNS
SR leukemia = test system: SR leukemia
SF-268 CNS = test system: SF-268 CNS
EKVX NSCLC = test system: EKVX NSCLC
HOP-92 NSCLC = test system: HOP-92 NSCLC
SK-MEL-2 melanoma = test system: SK-MEL-2 melanoma
MALME-3M melanoma = test system: MALME-3M melanoma
BT-549 breast = test system: BT-549 breast
HL-60(TB) leukemia = test system: HL-60(TB) leukemia
MDA-MB-435 = test system: MDA-MB-435
HOP-62 NSCLC = test system: HOP-62 NSCLC
SW-620 colon = test system: SW-620 colon
T-47D breast = test system: T-47D breast
MDA-MB-231 breast = test system: MDA-MB-231 breast
SNB-75 CNS = test system: SNB-75 CNS
MCF7 breast = test system: MCF7 breast
A549 NSCLC = test system: A549 NSCLC
TK-10 renal = test system: TK-10 renal
UACC-257 melanoma = test system: UACC-257 melanoma
SK-MEL-5 melanoma = test system: SK-MEL-5 melanoma
CCRF-CEM leukemia = test system: CCRF-CEM leukemia
KM12 colon = test system: KM12 colon
OVCAR-5 ovarian = test system: OVCAR-5 ovarian
SK-OV-3 ovarian = test system: SK-OV-3 ovarian
COLO 205 colon = test system: COLO 205 colon
OVCAR-3 ovarian = test system: OVCAR-3 ovarian

For `CC(C)(C)c1cc(C(=O)/C=C/c2c(Cl)cccc2Cl)cc(C(C)(C)C)c1O`, the TGI (HT29 colon) was 26.3 µM, the TGI (HS 578T breast) was over 84 µM and the TGI (DU-145 prostate) was over 96.2 µM. The TGI (NCI-H23 lung) was 48.9 µM, the TGI (RXF 393 renal) was 14.9 µM and the TGI (NCI-H460 lung) was 24 µM. For the same compound, the TGI (OVCAR-4 ovarian) was over 100 µM, the TGI (K-562 leukemia) was over 100 µM and the TGI (ACHN renal) was 28.2 µM. The TGI (OVCAR-8 ovarian) was over 100 µM, the TGI (CAKI-1 renal) was 54.9 µM and the TGI (NCI/ADR-RES ovarian) was 77.9 µM. For the same compound, the TGI (UACC-62 melanoma) was 30.3 µM, the TGI (HCT-15 colon) was 27.9 µM and the TGI (A498 renal) was over 100 µM. For the same compound, the TGI (IGROV1 ovarian) was over 100 µM, the TGI (RPMI-8226 leukemia) was 21.3 µM and the TGI (U251 CNS) was 24.5 µM. It also gave a TGI (HCC-2998 colon) of 28.1 µM, a TGI (NCI-H522 lung) of 17.5 µM and a TGI (SF-539 CNS) of 31.6 µM. For the same compound, the TGI (PC-3 prostate) was over 63.9 µM, the TGI (NCI-H226 lung) was 35.2 µM and the TGI (MOLT-4 leukemia) was over 56.5 µM. For the same compound, the TGI (SK-MEL-28 melanoma) was 41.3 µM, the TGI (MDA-N) was over 68.3 µM and the TGI (UO-31 renal) was 28.1 µM. It also gave a TGI (LOX IMVI melanoma) of 28.3 µM, a TGI (HCT-116 colon) of 23.2 µM and a TGI (SN12C renal) of over 75.2 µM. The TGI (M14 melanoma) was 54.7 µM, the TGI (786-0 renal) was 29.7 µM and the TGI (SF-295 CNS) was 42.2 µM. For the same compound, the TGI (SNB-19 CNS) was 29.7 µM, the TGI (SR leukemia) was over 37 µM and the TGI (SF-268 CNS) was over 58.9 µM. It also gave a TGI (EKVX NSCLC) of 63.3 µM, a TGI (HOP-92 NSCLC) of over 95.7 µM and a TGI (SK-MEL-2 melanoma) of 26.4 µM. The TGI (MALME-3M melanoma) was 37.6 µM, the TGI (BT-549 breast) was 61.7 µM and the TGI (HL-60(TB) leukemia) was 25.9 µM. It also gave a TGI (MDA-MB-435) of 54.4 µM, a TGI (HOP-62 NSCLC) of over 54.8 µM and a TGI (SW-620 colon) of 36.2 µM. The TGI (T-47D breast) was 18 µM, the TGI (MDA-MB-231 breast) was 41.6 µM and the TGI (SNB-75 CNS) was 34.3 µM. For the same compound, the TGI (MCF7 breast) was 46 µM, the TGI (A549 NSCLC) was over 100 µM and the TGI (TK-10 renal) was 41.5 µM. For the same compound, the TGI (UACC-257 melanoma) was 17.6 µM, the TGI (SK-MEL-5 melanoma) was 23.9 µM and the TGI (CCRF-CEM leukemia) was 22 µM. For the same compound, the TGI (KM12 colon) was 36.8 µM, the TGI (OVCAR-5 ovarian) was 35 µM and the TGI (SK-OV-3 ovarian) was over 100 µM. The TGI (COLO 205 colon) was 32 µM and the TGI (OVCAR-3 ovarian) was 25.3 µM.
